{
  "source": "patent US5401875A",
  "about": "“2-aminocarboxylic acids and their derivatives, processes for their preparation and their use as medicaments” (Godecke Aktiengesellschaft, priority 1988, dated 1995)",
  "key": {"protein kinase C": {"molecular_target": "protein kinase C", "test": "C-kinase: inhibition of protein kinase C, incorporation of phosphorus-32 labelled phosphate in histone", "assay_type": "biochemical, rat brain or chicken stomach smooth muscle", "settings": "pH 7.5; 10 μM ATP; 5 nM PKC; 5 min at 30° C.", "experimental": "The enzyme is purified from rat brain or smooth muscle (chicken stomach). Its activity is determined via the incorporation of phosphorus-32 labelled phosphate in histone. The reaction batch of 200 μL contains the following components: 50 mM HEPES-NaOH, pH 7.5, 5 mM MgCl2, 1 mM DTT, 4 μM free Ca^2+, 10 μM ATP, 1 μg phosphatidylserine, 0.2 μg 1,2-diolein, as well as 40 μg histone H-1. The batch is preincubated for 4 minutes at 30° C. and the reaction then started by addition of 5 nM PKC. After 5 minutes incubation at 30° C. the reaction is stopped with 10% TCA and the samples then filtered off. The phosphate incorporation is determined by means of Cerenkov counting in a scintillation counter."}, "[1]": {"molecular_target": "T1, cycloAMP-dependent kinase (Homo sapiens, UniProt P17612)", "T1 construct": "purchased", "test": "A-kinase: inhibition of cyclic AMP-dependent kinase (commercially available catalytic subunit), phosphorus-32 incorporation into histone", "assay_type": "biochemical", "settings": "pH 7.5; 40 μM ATP; histone-H-2B; read-out: Inhibition of cAMP-kinase, IC50-values", "experimental": "The measurement of the activity takes place with the commercially available catalytic subunit of the enzyme. The incorporation of phosphorus-32 labelled phosphate into histone is thereby measured. The reaction batch of 200 μL contains the following components: 50 mM PIPES-NaOH, pH 7.5, 10 mM MgCl2, 1 mM DTT, 40 μM ATP, as well as 50 μg histone-H-2B. The carrying out of the test takes place as in the case of C-kinase."}, "[2]": {"molecular_target": "T2, cycloGMP-dependent kinase (Bos taurus, UniProt P00516)", "T2 construct": "The enzyme was purified from bovine lung; from tissue; host or cells: bovine lung", "T2 sequence (P00516 1-671)": "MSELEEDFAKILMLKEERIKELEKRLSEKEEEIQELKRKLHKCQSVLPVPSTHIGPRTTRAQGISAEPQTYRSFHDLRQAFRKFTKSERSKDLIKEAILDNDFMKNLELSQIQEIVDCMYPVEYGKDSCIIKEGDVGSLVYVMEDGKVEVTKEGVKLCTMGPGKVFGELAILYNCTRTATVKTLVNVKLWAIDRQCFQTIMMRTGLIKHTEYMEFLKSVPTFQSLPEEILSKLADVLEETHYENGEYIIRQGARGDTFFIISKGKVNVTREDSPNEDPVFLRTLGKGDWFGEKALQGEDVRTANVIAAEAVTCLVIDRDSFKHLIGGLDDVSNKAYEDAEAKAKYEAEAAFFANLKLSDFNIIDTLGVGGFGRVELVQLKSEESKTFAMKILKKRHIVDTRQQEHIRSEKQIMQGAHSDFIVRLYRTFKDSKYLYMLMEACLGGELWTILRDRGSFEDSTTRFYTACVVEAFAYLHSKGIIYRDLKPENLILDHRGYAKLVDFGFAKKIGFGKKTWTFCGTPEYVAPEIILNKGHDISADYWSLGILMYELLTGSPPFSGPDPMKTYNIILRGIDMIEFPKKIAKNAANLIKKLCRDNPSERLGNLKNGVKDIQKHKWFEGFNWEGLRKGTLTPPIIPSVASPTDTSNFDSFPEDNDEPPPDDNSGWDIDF", "test": "G-kinase: inhibition of cyclic GMP-dependent kinase, phosphorus-32 incorporation into histone", "assay_type": "biochemical, bovine", "settings": "pH 7.4; 10 μM ATP; 10 μM cGMP; 2.5 nM G-kinase", "experimental": "The enzyme was purified from bovine lung and its activity determined via the incorporation of phosphorus 32-labelled phosphate into histone. In the test batch are contained the following components: 20 mM Tris-HCl, pH 7.4, 5 mM MgCl2, 1 mM DTT, 10 μM ATP, 10 μM cGMP, 40 μg BSA, 2% glycerol, as well as 10 μg histone II-A. The starting of the reaction takes place by addition of 2.5 nM G-kinase. Otherwise, the carrying out of the test takes place as in the case of C-kinase."}, "[3]": {"molecular_target": "T3, myosine light chain kinase (Gallus gallus, UniProt P11799)", "T3 construct": "Not only the enzyme but also the substrate (MLC) are purified from chicken stomach; from tissue; host or cells: chicken stomach", "T3 sequence (P11799 935-1906 limits assumed)": "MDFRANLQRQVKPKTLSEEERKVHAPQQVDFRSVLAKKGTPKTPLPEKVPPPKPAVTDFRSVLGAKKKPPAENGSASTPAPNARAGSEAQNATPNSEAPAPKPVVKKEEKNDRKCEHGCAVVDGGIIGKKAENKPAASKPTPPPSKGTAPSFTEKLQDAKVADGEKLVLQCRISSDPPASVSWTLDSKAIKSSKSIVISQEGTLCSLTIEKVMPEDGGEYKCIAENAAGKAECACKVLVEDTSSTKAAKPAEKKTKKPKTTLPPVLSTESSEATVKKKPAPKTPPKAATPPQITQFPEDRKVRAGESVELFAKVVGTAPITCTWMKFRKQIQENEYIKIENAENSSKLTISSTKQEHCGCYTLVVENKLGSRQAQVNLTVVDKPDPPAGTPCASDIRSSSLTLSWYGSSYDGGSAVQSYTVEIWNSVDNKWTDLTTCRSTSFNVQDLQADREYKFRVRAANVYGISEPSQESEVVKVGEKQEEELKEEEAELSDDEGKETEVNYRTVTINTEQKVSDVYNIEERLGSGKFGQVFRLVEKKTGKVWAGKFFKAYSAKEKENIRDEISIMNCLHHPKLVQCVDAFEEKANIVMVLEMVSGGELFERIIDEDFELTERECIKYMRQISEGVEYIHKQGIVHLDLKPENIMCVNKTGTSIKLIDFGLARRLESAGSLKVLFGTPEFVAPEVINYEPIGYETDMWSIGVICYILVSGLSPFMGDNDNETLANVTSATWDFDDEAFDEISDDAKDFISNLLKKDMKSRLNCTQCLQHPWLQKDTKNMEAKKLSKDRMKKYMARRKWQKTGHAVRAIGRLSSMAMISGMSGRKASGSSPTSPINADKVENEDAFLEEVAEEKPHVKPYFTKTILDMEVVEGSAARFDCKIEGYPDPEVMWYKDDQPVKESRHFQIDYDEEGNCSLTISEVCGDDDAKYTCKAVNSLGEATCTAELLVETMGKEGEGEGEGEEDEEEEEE", "test": "MLC-kinase: inhibition of myosine light chain kinase, phosphorus-32 incorporation into MLC", "assay_type": "biochemical, chicken", "settings": "pH 7.2; 250 μM ATP; 25 μM MLC; about 1 nM MLC kinase", "experimental": "Not only the enzyme but also the substrate (MLC) are purified from chicken stomach. The activity measurement also takes place via the incorporation of phosphorus-32 labelled phosphate. The reaction batch of 200 μL contains the following components: 50 mM MOPS-NaOH, pH 7.2, 5 mM MgCl2, 100 μM CaCl2, 100 nM calmodulin, 1 mM DTT, 250 μM ATP, as well as 25 μM MLC. The reaction is started by addition of about 1 nM MLC kinase; otherwise, the carrying out of the test takes place as in the case of C-kinase."}},
  "note": "Counter-ions that a name gives are not always drawn.",
  "data": [
    {"smiles": "CCCCCCCCCCCCCCCCCCOCC(CN(C)C)OC(C)=O", "note": "(racemic) [A, (±)1-dimethylamino-3-octadecyloxy-2-propyl acetate hydrochloride]", "values": [
      {"measurement": "IC50", "setting": "protein kinase C", "result": 5, "unit": "µM"},
      {"measurement": "IC50", "setting": "[1]", "result": "> 100", "unit": "µM"},
      {"measurement": "IC50", "setting": "[2]", "result": "> 100", "unit": "µM"},
      {"measurement": "IC50", "setting": "[3]", "result": "> 100", "unit": "µM"}
    ]},
    {"smiles": "CCCCCCCCCCOCC(CN1CCC(CN)(c2ccccc2)CC1)OCCCCCCCCCC", "note": "(stereo not drawn) [B]", "values": [
      {"measurement": "IC50", "setting": "protein kinase C", "result": 7, "unit": "µM"},
      {"measurement": "IC50", "setting": "[1]", "result": 29, "unit": "µM"},
      {"measurement": "IC50", "setting": "[2]", "result": 28, "unit": "µM"},
      {"measurement": "IC50", "setting": "[3]", "result": 5.1, "unit": "µM"}
    ]},
    {"smiles": "CCCCCCCCCCCCCCCCCCOCC(O)CN(C)C(CO)C(=O)O", "note": "(stereo not drawn) [Example 1, 2-[N-Methyl-N-(3-octadecyloxy-2-hydroxypropyl)]-amino-3-hydroxypropionic acid hydrochloride]", "values": [
      {"measurement": "IC50", "setting": "protein kinase C", "result": 2.5, "unit": "µM"},
      {"measurement": "IC50", "setting": "[1]", "result": "> 100", "unit": "µM"},
      {"measurement": "IC50", "setting": "[2]", "result": "> 100", "unit": "µM"},
      {"measurement": "IC50", "setting": "[3]", "result": "> 100", "unit": "µM"}
    ]}
  ]
}
